Results from patent US7173129B2, “Sulfonamide-substituted chalcone derivatives and their use to treat diseases” (Athero Genics, Inc., priority 2003, dated 2007).
Where a name gives a salt, the structure may show the parent alone.

How the values were obtained:
[1] = tested on: VCAM-1; experiment: In Vitro VCAM-1 Assay (TNF-α stimulated endothelial cells, cell-surface ELISA); format: cell-based; settings: primary human aortic (HAEC) or pulmonary (HPAEC) endothelial cells, TNF-α 1 ng/ml, approximately 16 hours, ELISA OD 450 nm
Description: Cell Culture and compound dosing: Cultured primary human aortic (HAEC) or pulmonary (HPAEC) endothelial cells were obtained from Clonetics, Inc., and were used below passage 9. Cells were seeded in 96 well plates such that they would reach 90–95% confluency by the following day. On the following day the cells were stimulated with TNF-α (1 ng/ml) in the presence or absence of compounds dissolved in DMSO such that the final concentration of DMSO is 0.25% or less. To establish a dose curve for each compound, four concentrations in 2- to 5-fold increments were used. Cells were exposed to TNF-α and compounds for approximately 16 hours. The next day the cells were examined under microscope to score for visual signs of toxicity or cell stress.
Following 16 hr exposure to TNF-α and compound the media was discarded and the cells were washed once with Hanks Balanced Salt Solution (HBSS)/Phosphate buffered saline (PBS) (1:1). Primary antibodies against VCAM-1 (0.25 μg/ml in HBSS/PBS+5% FBS) were added and incubated for 30–60 minutes at 37° C. Cells were washed with HBSS/PBS three times, and secondary antibody Horse Radish Peroxidase (HRP)-conjugated goat anti-mouse IgG (1:500 in HBSS/PBS+5% FBS) were added and incubated for 30 minutes at 37° C. Cells were washed with HBSS/PBS four time and TMB substrate were added and incubated at room temperature in the dark until there was adequate development of blue color. The length of time of incubation was typically 5–15 minutes. 2N sulfuric acid was added to stop the color development and the data was collected by reading the absorbance on a BioRad ELISA plate reader at OD 450 nm. The results are expressed as IC50 values (the concentration (micromolar) of compound required to inhibit 50% of the maximal response of the control sample stimulated by TNF-α only).

[2] = Homo sapiens, Endothelial cell, 16 h

| Structure (SMILES) | IC50 [1, 2] [µM] | melting point | IC50 [1] [µM] |
| --- | --- | --- | --- |
| COc1cc(OC)c(-c2cc3ccccc3n2C)cc1/C=C/C(=O)c1ccc(S(=O)(=O)NCc2cccnc2)cc1 [Example 17, 4-{3E-[2,4-Dimethoxy-5-(1-methyl-1H-indol-2-yl)phenyl]acryloyl}-N-pyridin-3-ylmethy-benzenesulfonamide] | – | – | < 10 |
| COc1cc(OC)c(-c2cc3ccccc3[nH]2)cc1/C=C/C(=O)c1ccc(S(=O)(=O)N(C)C)cc1 [Example 32, 4-{3E-[5-(1H-Indol-2-yl)-2,4-dimethoxyphenyl]acryloyl}-N,N-dimethylbenzenesulfonamide] | < 5 | 158 to 162 °C | – |
| COc1cc(OC)c(N2CCCC2)cc1/C=C/C(=O)c1ccc(S(=O)(=O)NCCCn2ccnc2)cc1 [Example 54, 4-[3E-(2,4-Dimethoxy-5-pyrrolidin-1-ylphenyl)acryloyl]-N-(3-imidazol-1-ylpropyl)benzenesulfonamide] | > 5 | 140 to 143 °C | – |
| COc1cc(OC)c(N2CCCC2)cc1/C=C/C(=O)c1ccc(S(=O)(=O)NCCCN2CCN(C)CC2)cc1 [Example 55, 4-[3E-(2,4-Dimethoxy-5-pyrrolidin-1-ylphenyl)acryloyl]-N-[3-(4-methyl-piperazin-1-yl)propyl]benzenesulfonamide] | > 10 | 64 to 68 °C | – |
| COc1cc(OC)c(-c2cccs2)cc1/C=C/C(=O)c1ccc(S(=O)(=O)Nc2nnn[nH]2)cc1 [Example 4, 4-[3E-(2,4-Dimethoxy-5-thien-2-ylphenyl)acryloyl]-N-(1-H-tetrazol-5-yl)benzenesulfonamide] | – | – | > 10 |
| CCC(=O)[N-]S(=O)(=O)c1ccc(C(=O)/C=C/c2cc(-c3cc4ccccc4[nH]3)c(OC)cc2OC)cc1.[Na+] [Example 46, 4-{3E-[5-(1H-Indol-2-yl)-2,4-dimethoxyphenyl]acryloyl}-N-propionylbenzenesulfonamide sodium salt] | – | > 250 °C | – |
| CCCC(=O)NS(=O)(=O)c1ccc(C(=O)/C=C/c2cc(N3CCCC3)c(OC)cc2OC)cc1 [Example 48, N-Butyryl-4-[3E-(2,4-dimethoxy-5-pyrrolidin-1-ylphenyl)acryloyl]benzenesulfonamide] | < 5 | – | – |
| COc1cc(OC)c(-c2cccs2)cc1/C=C/C(=O)c1ccc(S(=O)(=O)N2CCN(C)CC2)cc1 [Example 21, 3E-(2,4-Dimethoxy-5-thien-2-ylphenyl)-1-[4-(4-methylpiperazine-1-sulfonyl)phenyl]propenone] | – | – | < 10 |
| CCCC(=O)[N-]S(=O)(=O)c1ccc(C(=O)/C=C/c2cc(-c3cc4ccccc4[nH]3)c(OC)cc2OC)cc1.[Na+] [Example 49, N-Butyryl-4-{3E-[5-(1H-indol-2-yl)-2,4-dimethoxyphenyl]acryloyl}benzenesulfonamide sodium salt] | – | 191 to 193 °C | – |
| CCOC(=O)NS(=O)(=O)c1ccc(C(=O)/C=C/c2cc(-c3cc4ccccc4[nH]3)c(OC)cc2OC)cc1 [Example 41, N-Ethoxycarbonyl-4-{3E-[5-(1H-indol-2-yl)-2,4-dimethoxyphenyl]acryloyl}benzenesulfonamide] | < 5 | – | – |
| COc1cc(OC)c(-c2cccs2)cc1/C=C/C(=O)c1ccc(S(=O)(=O)Nc2cc(C)no2)cc1 [Example 9] | – | – | < 10 |
| CCOC(=O)[N-]S(=O)(=O)c1ccc(C(=O)/C=C/c2cc(-c3cc4ccccc4[nH]3)c(OC)cc2OC)cc1.[K+] [Example 40, N-Ethoxycarbonyl-4-{3E-[5-(1H-indol-2-yl)-2,4-dimethoxyphenyl]acryloyl}benzenesulfonamide potassium salt] | – | 220 to 222 °C | – |
| COc1cc(OC)c(-c2cc3ccccc3[nH]2)cc1/C=C/C(=O)c1ccc(S(=O)(=O)[N-]C(=O)C(C)C)cc1.[Na+] [Example 36, 4-{3E-[5-(1H-Indol-2-yl)-2,4-dimethoxyphenyl]acryloyl}-N-isobutyrylbenzenesulfonamide sodium salt] | – | 249 to 251 °C (dec.) | – |

Second part, led by results:

| IC50 [1, 2] [µM] | melting point | Structure (SMILES) | IC50 [1] [µM] |
| --- | --- | --- | --- |
| > 10 | 100 to 101 °C | COc1cc(OC)c(-c2cccs2)cc1/C=C/C(=O)c1ccc(S(=O)(=O)NCC(=O)O)cc1 [Example 26, {4-[3E-(2,4-Dimethoxy-5-thien-2-ylphenyl)acryloyl]benzenesulfonylamino}acetic acid] | – |
| < 5 | 141 to 143 °C | COc1cc(OC)c(-c2cccs2)cc1/C=C/C(=O)c1ccc(S(=O)(=O)Nc2ccccn2)cc1 [Example 5, 4-[3E-(2,4-Dimethoxy-5-thien-2-ylphenyl)acryloyl]-N-pyridin-2-ylbenzenesulfonamide] | – |
| < 5 | > 260 °C | COc1cc(OCCN2CCOCC2)c(/C=C/C(=O)c2ccc(S(=O)(=O)Nc3cc(C)on3)cc2)cc1-c1cccs1.Cl [Example 14, 4-{3E-[4-Methoxy-2-(2-morpholin-4-yl-ethoxy)-5-thien-2-ylphenyl]acryloyl}-N-(5-methyl-isoxazol-3-yl)benzenesulfonamide hydrochloride] | – |
| < 5 | 243 to 245 °C (dec.) | COc1cc(OC)c(-c2cc3ccccc3[nH]2)cc1/C=C/C(=O)c1ccc(S(=O)(=O)NC(=O)C(C)C)cc1 [Example 35, 4-{3E-[5-(1H-Indol-2-yl)-2,4-dimethoxyphenyl]acryloyl}-N-isobutyrylbenzenesulfonamide] | – |
| < 5 | 198 to 199 °C | COc1cc(OC)c(-c2cccs2)cc1/C=C/C(=O)c1ccc(S(=O)(=O)Nc2ccon2)cc1 [Example 7, 4-[3E-(2,4-Dimethoxy-5-thien-2-ylphenyl)acryloyl]-N-isoxazol-3-ylbenzenesulfonamide] | – |
| < 10 | 167 to 168 °C | COc1cc(OC)c(-c2cc3ccccc3n2C)cc1/C=C/C(=O)c1ccc(S(=O)(=O)NCCN2CCOCC2)cc1 [Example 18, 4-{3E-[2,4-Dimethoxy-5-(1-methyl-1H-indol-2-yl)phenyl]acryloyl}-N-(2-morpholin-4-yl-ethyl)benzenesulfonamide] | – |
| < 5 | 112 to 116 °C | COc1cc(OC)c(N2CCCC2)cc1/C=C/C(=O)c1ccc(S(=O)(=O)NCc2ccccn2)cc1 [Example 53, 4-[3E-(2,4-Dimethoxy-5-pyrrolidin-1-ylphenyl)acryloyl]-N-pyridin-2-ylmethylbenzenesulfonamide] | – |
| < 5 | 129 to 131 °C | CNS(=O)(=O)c1ccc(C(=O)/C=C/c2cc(-c3cc4ccccc4n3C)c(OC)cc2OC)cc1 [Example 29, 4-{3E-[2,4-Dimethoxy-5-(1-methyl-1H-indol-2-yl)phenyl]acryloyl}-N-methyl-benzenesulfonamide] | – |
| < 5 | 171 to 172 °C | COc1cc(OC)c(-c2cccs2)cc1/C=C/C(=O)c1ccc(S(=O)(=O)NCCN2CCOCC2)cc1 [Example 20, 4-[3E-(2,4-Dimethoxy-5-thien-2-ylphenyl)acryloyl]-N-(2-morpholin-4-yl-ethyl)benzenesulfonamide] | – |
| – | > 260 °C | COc1cc(OC)c(-c2cccs2)cc1/C=C/C(=O)c1ccc(S(=O)(=O)Nc2cc(C)on2)cc1 (as salt: sodium) [Example 2, 4-[3E-(2,4-Dimethoxy-5-thien-2-ylphenyl)acryloyl]-N-(5-methylisoxazol-3-yl)benzenesulfonamide sodium salt] | – |
| < 5 | – | COc1cc(OC)c(-c2cc3ccccc3n2C)cc1/C=C/C(=O)c1ccc(S(=O)(=O)Nc2cc(C)on2)cc1 [Example 16, 4-{3E-[2,4-Dimethoxy-5-(1-methyl-1H-indol-2-yl)phenyl]acryloyl}-N-(5-methylisoxazol-3-yl)benzenesulfonamide sodium salt] | – |
| – | 160 to 170 °C | COc1cc(OC)c(-c2cccs2)cc1/C=C/C(=O)c1ccc(S(=O)(=O)NCC(F)(F)F)cc1 (as salt: sodium) [Example 25, 4-[3E-(2,4-Dimethoxy-5-thien-2-ylphenyl)acryloyl]-N-(2,2,2-trifluoroethyl)benzenesulfonamide sodium salt] | – |
| – | 202 to 206 °C | COc1cc(OC)c(-c2cc3ccccc3n2C)cc1/C=C/C(=O)c1ccc(S(=O)(=O)Nc2cc(C)on2)cc1 (as salt: sodium) [Example 16, 4-{3E-[2,4-Dimethoxy-5-(1-methyl-1H-indol-2-yl)phenyl]acryloyl}-N-(5-methylisoxazol-3-yl)benzenesulfonamide sodium salt] | – |
| < 10 | – | COc1cc(OC)c(-c2cccs2)cc1/C=C/C(=O)c1ccc(S(=O)(=O)N2CCCCC2C(=O)O)cc1 (stereo not shown) [Example 28, 1-{4-[3E-(2,4-Dimethoxy-5-thien-2-ylphenyl)acryloyl]benzenesulfonyl}piperidine-2-carboxylic acid] | – |
| < 5 | – | CCCC(=O)NS(=O)(=O)c1ccc(C(=O)/C=C/c2cc(-c3cc4ccccc4[nH]3)c(OC)cc2OC)cc1 [Example 47, N-Butyryl-4-{3E-[5-(1H-indol-2-yl)-2,4-dimethoxyphenyl]acryl}benzenesulfonamide] | – |
